Reference: BindingDB's records for doi:10.7270/Q2QJ7FTF (Burnham Center For Chemical Genomics, 2011)

Molecular target: T1, C-C chemokine receptor type 6 (Homo sapiens, UniProt P51684)
T1 sequence (P51684 whole entry): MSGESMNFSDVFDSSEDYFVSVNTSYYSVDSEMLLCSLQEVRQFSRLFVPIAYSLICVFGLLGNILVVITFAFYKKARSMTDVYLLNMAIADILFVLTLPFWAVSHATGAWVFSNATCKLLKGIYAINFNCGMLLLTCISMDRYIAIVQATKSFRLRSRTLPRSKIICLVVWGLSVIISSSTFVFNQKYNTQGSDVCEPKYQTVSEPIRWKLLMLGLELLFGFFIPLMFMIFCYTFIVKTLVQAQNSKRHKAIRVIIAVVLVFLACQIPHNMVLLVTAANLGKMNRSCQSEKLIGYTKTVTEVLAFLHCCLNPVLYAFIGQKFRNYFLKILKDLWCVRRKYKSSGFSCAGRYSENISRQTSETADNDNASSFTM
Assay: CCR6 receptor antagonists, SAR follow-up, cell-based, luminescent beta-arrestin readout (AID 540334)

CN1C(=O)C(C2CC(c3ccc(Cl)cc3)N=N2)C(=O)N(C)C1=O (configuration not stated) [SMR000439471]
IC50: 5.84 µM

OCC12C=CC(O1)c1c2c(O)n(-c2ccccc2-c2ccccc2)c1O (configuration not stated) [7-(hydroxymethyl)-2-(2-phenylphenyl)-4,7a-dihydro-3aH-octahydro-1H-4,7-epoxyisoindole-1,3-dione]
IC50: > 66.6 µM
